Test results: ChEMBL document CHEMBL1156709, “Evaluation of ursolic acid isolated from Ilex paraguariensis and derivatives on aromatase inhibition” (Eur J Med Chem, 2008)

Tests used:
Aromatase [1] = molecular target: T1, Aromatase (Homo sapiens, UniProt P11511); assay: Inhibition of aromatase at 40.7 uM
T1 sequence (P11511 whole entry): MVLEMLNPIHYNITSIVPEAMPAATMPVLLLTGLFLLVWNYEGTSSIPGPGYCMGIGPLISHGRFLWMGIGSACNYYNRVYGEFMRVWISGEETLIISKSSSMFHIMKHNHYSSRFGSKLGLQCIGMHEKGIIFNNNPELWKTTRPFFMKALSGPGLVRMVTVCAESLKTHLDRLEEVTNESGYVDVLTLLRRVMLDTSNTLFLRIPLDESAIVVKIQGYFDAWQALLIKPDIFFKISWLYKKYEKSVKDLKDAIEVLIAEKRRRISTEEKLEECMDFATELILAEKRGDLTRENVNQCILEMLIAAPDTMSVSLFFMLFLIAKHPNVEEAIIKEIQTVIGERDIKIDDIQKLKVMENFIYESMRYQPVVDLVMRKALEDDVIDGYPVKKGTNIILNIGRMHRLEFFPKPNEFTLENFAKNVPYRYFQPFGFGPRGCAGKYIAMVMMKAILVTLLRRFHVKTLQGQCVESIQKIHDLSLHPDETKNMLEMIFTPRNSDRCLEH

Aromatase [2] = molecular target: T1, Aromatase; assay: Inhibition of aromatase in human placental microsomes assessed as tritiated water release after 15 mins using [1-beta, 3H]androstenedione as substrate by scintillation counting; design: species or system Placenta
Aromatase [3] = molecular target: T1, Aromatase; assay: Inhibition of aromatase

| Structure (SMILES) | inhibition at 40.7 µM (Aromatase [1]) [%] | IC50 (Aromatase [2]) [µM] | IC50 (Aromatase [3]) [µM] |
| --- | --- | --- | --- |
| C[C@H]1[C@H](C)CC[C@]2(C(=O)O)CC[C@]3(C)C(=CC[C@@H]4[C@@]5(C)CC[C@H](O)C(C)(C)[C@@H]5CC[C@]43C)[C@H]12 [URSOLIC ACID] | 12 | 32 | 30.7 |
| C[C@H]1[C@H](C)CC[C@]2(C(=O)O)CC[C@]3(C)C(=CC[C@@H]4[C@@]5(C)CCC(=O)C(C)(C)[C@@H]5CC[C@]43C)[C@H]12 [URSONIC ACID] |  | > 500 |  |
| C[C@H]1[C@H](C)CC[C@]2(C(=O)O)CC[C@]3(C)C(=CC[C@@H]4[C@@]5(C)CC/C(=N\O)C(C)(C)[C@@H]5CC[C@]43C)[C@H]12 |  | > 500 |  |
| C[C@H]1[C@H](C)CC[C@]2(C(=O)O)CC[C@]3(C)C(=CC[C@@H]4[C@@]5(C)CCC(=O)NC(C)(C)[C@@H]5CC[C@]43C)[C@H]12 |  | > 500 |  |
| CC(=O)O[C@H]1CC[C@]2(C)[C@H]3CC=C4[C@@H]5[C@@H](C)[C@H](C)CC[C@]5(C(=O)NCCCN5CCN(CCCN)CC5)CC[C@@]4(C)[C@]3(C)CC[C@H]2C1(C)C |  | < 500 |  |
| C[C@H]1[C@H](C)CC[C@]2(C(=O)NCCCN3CCN(CCCN)CC3)CC[C@]3(C)C(=CC[C@@H]4[C@@]5(C)CC[C@H](O)C(C)(C)[C@@H]5CC[C@]43C)[C@H]12 |  | < 500 |  |
| C[C@]12CCC(=O)C(O)=C1CC[C@@H]1[C@@H]2CC[C@]2(C)C(=O)CC[C@@H]12 [FORMESTANE] |  | 0.8 |  |
| CC1(C)CC[C@]2(C(=O)O)CC[C@]3(C)C(=CC[C@@H]4[C@@]5(C)CC[C@H](O)C(C)(C)[C@@H]5CC[C@]43C)[C@@H]2C1 [OLEANOLIC_ACID] | 12 |  |  |
| CC(=O)O[C@H]1CC[C@]2(C)[C@H]3CC=C4[C@@H]5[C@@H](C)[C@H](C)CC[C@]5(C(=O)O)CC[C@@]4(C)[C@]3(C)CC[C@H]2C1(C)C [O-ACETYLURSOLIC ACID] |  |  | 85.6 |
| C=C(C)[C@@H]1CC[C@]2(C)[C@H](CC=C3[C@@H]4[C@@H](C)[C@H](C)CC[C@]4(C(=O)O)CC[C@]32C)[C@@]1(C)CCC#N |  | > 500 |  |
